Structures are written as SMILES. In brackets after ≈: the same amount, converted by molar mass.

Experimental findings from ChEMBL document CHEMBL4321839, “Structure-activity relationships (SAR) of triazine derivatives: Promising antimicrobial agents” (Eur J Med Chem, 2020) are described below.

Type in all cases: functional
One assay concerns Candida albicans. Kind of assay: Antifungal activity against Candida albicans NCIM-3102 at 18 to 24 hrs by CLSI based alamar blue assay.
Another assay has as its system Nakaseomyces glabratus. Kind of assay: Antifungal activity against Candida glabrata NCIM-3266 at 18 to 24 hrs by CLSI based alamar blue assay. On the technique in general: Alamar Blue is a resazurin reagent that responds to reducing activity.
Assay [1] deals with Staphylococcus aureus. Kind of assay: Antimicrobial activity methicillin-resistant against Staphylococcus aureus.
The subject of assay [2] is Escherichia coli. In words: Antimicrobial activity multi drug-resistant against Escherichia coli.
The next assay deals with Bacillus cereus. In words: Antimicrobial activity against Bacillus cereus NCIM-2156 assessed as zone of inhibition at 5 ug after 24 hrs by disk diffusion method. The conditions noted are these: NCIM-2156, 24 h, read-out: IZ. Background: A growth-free zone around the sample is the usual read-out of agar diffusion tests.
Assay [3] relates to Pseudomonas aeruginosa. Kind of assay: Antimicrobial activity against Pseudomonas aeruginosa NCIM-2036 assessed as zone of inhibition at 5 ug after 24 hrs by disk diffusion method. The conditions noted are these: NCIM-2036, 24 h, read-out: IZ.
Assay [4] relates to Staphylococcus aureus. In words: Antimicrobial activity against Staphylococcus aureus NCIM-2079 assessed as zone of inhibition at 5 ug after 24 hrs by disk diffusion method. The conditions noted are these: NCIM-2079, 24 h, read-out: IZ.
Assay [5] deals with Bacillus subtilis. In words: Antimicrobial activity against Bacillus subtilis NCIM-2063 assessed as zone of inhibition at 5 ug after 24 hrs by disk diffusion method. The conditions noted are these: NCIM-2063, 24 h, read-out: IZ.
For assay [6], the system named is Escherichia coli. In words: Antimicrobial activity against Escherichia coli ATCC 25922 assessed as reduction in microbial growth after 24 to 48 hrs by microdilution susceptibility test. (In broth dilution the organism is exposed to a series of concentrations in liquid medium.)
The test system of assay [7] is Staphylococcus aureus. In words: Antimicrobial activity against Staphylococcus aureus […] assessed as reduction in microbial growth after 24 to 48 hrs by microdilution susceptibility test.
Another assay relates to Lacticaseibacillus casei. In words: Antibacterial activity against Lactobacillus casei NCIM-2651 assessed as reduction in microbial growth incubated for 24 hrs by broth dilution method. The conditions noted are these: NCIM-2651, 24 h.
Assay [8] deals with Bacillus subtilis. Kind of assay: Antimicrobial activity against Bacillus subtilis NCIM-2063 assessed as reduction in microbial growth after 24 hrs by CLSI based broth dilution method. The conditions noted are these: NCIM-2063, 24 h.
The subject of assay [9] is Escherichia coli. Kind of assay: Antimicrobial activity against Escherichia coli NCIM-2065 assessed as reduction in microbial growth after 24 hrs by CLSI based broth dilution method. The conditions noted are these: NCIM-2065, 24 h.
For another assay, the system named is Proteus vulgaris. Kind of assay: Antimicrobial activity against Proteus vulgaris NCIM-2027 assessed as reduction in microbial growth after 24 hrs by CLSI based broth dilution method. The conditions noted are these: NCIM-2027, 24 h.
In assay [10] the test system is Pseudomonas aeruginosa. Kind of assay: Antimicrobial activity against Pseudomonas aeruginosa NCIM-2036 after 24 hrs by CLSI based broth dilution method. The conditions noted are these: NCIM-2036, 24 h.

In general, MIC refers to the smallest concentration in the dilution series that meets the test's criterion for growth inhibition. Consider `O=[N+]([O-])c1ccc(-c2csc(Nc3nc(N(c4ccccc4)c4ccccc4)nc(N(c4ccccc4)c4ccccc4)n3)n2)cc1`, for which the MIC against Candida albicans and against Nakaseomyces glabratus was 0.32 µg/mL (≈ 0.504 µM) each time.

In the assay on Staphylococcus aureus [1], `Nc1ccc(C2=NN=C3C(F)CC4=C(C(C5CC5)C=C(C(=O)O)C4=O)N3C2)cc1` (configuration not stated) had an MIC of 0.25 µg/mL (≈ 0.634 µM).

`O=C(O)C1=CC(C2CC2)C2=C(CC(F)C3=NN=C(c4ccc(Cl)cc4)CN32)C1=O` (configuration not stated): the MIC against Staphylococcus aureus [1] and against Escherichia coli [2] was 8 µg/mL (≈ 19.3 µM) throughout.

Turning to `COc1ccccc1C1=NN=C2C(F)CC3=C(C(C4CC4)C=C(C(=O)O)C3=O)N2C1` (configuration not stated), the MIC with Staphylococcus aureus [1] was found to be 1 µg/mL (≈ 2.44 µM); with Escherichia coli [2] it was 0.5 µg/mL (≈ 1.22 µM).

On to `S=C(Nc1ccnc2cc(Cl)ccc12)N1CCN(c2nc(Nc3ccc(Cl)cc3)nc(Nc3ccc(Cl)cc3)n2)CC1`, for which the zone of inhibition at 5 µg/disc with Bacillus cereus lay in the range of 9 to 17 mm; in the assay with Pseudomonas aeruginosa [3] it was 9 to 17 mm; in the assay with Staphylococcus aureus [4], 16 to 17 mm; in the assay with Bacillus subtilis [5] it was 16 to 17 mm.

As to `Cc1ccc(Nc2nc(Nc3ccc(C)cc3)nc(N3CCN(C(=S)Nc4ccnc5cc(Cl)ccc45)CC3)n2)cc1`, the zone of inhibition at 5 µg/disc in the assay with Bacillus cereus was in the range of 9 to 17 mm; in the assay on Pseudomonas aeruginosa [3], 9 to 17 mm; in the assay with Staphylococcus aureus [4] it was 16 to 17 mm; in the assay on Bacillus subtilis [5] it was 16 to 17 mm.

`CC1(C)S[C@@H]2[C@H](NC(=O)[C@H](N)c3ccccc3)C(=O)N2[C@H]1C(=O)O.O.O.O` [AMPICILLIN TRIHYDRATE]: the MIC stood at 25 µg/mL in the assay with Escherichia coli [6] and 12.5 µg/mL with Staphylococcus aureus [7].

In the case of `COc1ccc(C2=NN=C3C(F)CC4=C(C(C5CC5)C=C(C(=O)O)C4=O)N3C2)cc1OC` (configuration not stated), the MIC came to 1 µg/mL (≈ 2.28 µM) against Staphylococcus aureus [1] and 0.5 µg/mL (≈ 1.14 µM) against Escherichia coli [2].

Regarding `O=C(CNc1nc(NCC(=O)N/N=C/c2ccc(Cl)cc2)nc(N2CCN(c3nc(NCC(=O)N/N=C/c4ccc(Cl)cc4)nc(NCC(=O)N/N=C/c4ccc(Cl)cc4)n3)CC2)n1)N/N=C/c1ccc(Cl)cc1`, the MIC in the assay on Escherichia coli [6] and with Staphylococcus aureus [7] was 12.5 to 25 µg/mL in each case.

Turning to `CN[C@@H]1[C@H](O[C@H]2[C@H](O[C@H]3[C@H](O)[C@@H](O)[C@H](N=C(N)N)[C@@H](O)[C@@H]3N=C(N)N)O[C@@H](C)[C@]2(O)C=O)O[C@@H](CO)[C@H](O)[C@H]1O` [STREPTOMYCIN], the MIC with Lacticaseibacillus casei is 12.5 µg/mL.

For the compound `C[C@H]1COc2c(N3CCN(C)CC3)c(F)cc3c(=O)c(C(=O)O)cn1c23.C[C@H]1COc2c(N3CCN(C)CC3)c(F)cc3c(=O)c(C(=O)O)cn1c23.O` [LEVOFLOXACIN], the minimum inhibitory concentration (MIC) in the assay on Bacillus subtilis [8] and with Escherichia coli [9] was 3.12 µg/mL throughout. Further, the zone of inhibition at 5 µg/disc in the assay with Staphylococcus aureus [4] and in the assay on Bacillus subtilis [5] was 14 to 15 mm each time.

Turning to `O=[N+]([O-])c1cccc(Nc2nc(NC3=NC(c4ccccc4O)=CC(c4ccccc4[N+](=O)[O-])S3)nc(Nc3cccc([N+](=O)[O-])c3)n2)c1` (configuration not stated), the values for the MIC in the assay with Bacillus subtilis [8] and in the assay with Escherichia coli [9] were 6.25 µg/mL and 12.5 µg/mL, respectively.

With `C=CC1=C(C(=O)O)N2C(=O)[C@@H](NC(=O)/C(=N\OCC(=O)O)c3csc(N)n3)[C@H]2SC1` [CEFIXIME], the MIC lay in the range of 3.91 to 7.81 µg/mL with Proteus vulgaris, 3.91 to 7.81 µg/mL in the assay on Escherichia coli [9] and 3.12 to 6.25 µg/mL (≈ 6.89 to 13.8 µM) in the assay on Pseudomonas aeruginosa [10].

`OC(Cn1cncn1)(Cn1cncn1)c1ccc(F)cc1F` [FLUCONAZOLE]: the MIC in the assay with Candida albicans and with Nakaseomyces glabratus was 0.63 µg/mL (≈ 2.06 µM) throughout.

On to `O=C(O)C1=CC(C2CC2)C2=C(CC(F)C3=NN=C(c4ccccc4F)CN32)C1=O` (configuration not stated), for which the minimal inhibitory concentration (MIC) is 0.25 to 8 µg/mL (≈ 0.629 to 20.1 µM) against Staphylococcus aureus [1] and 0.25 µg/mL (≈ 0.629 µM) with Escherichia coli [2].

Turning to `Clc1ccc(-c2csc(Nc3nc(N(c4ccccc4)c4ccccc4)nc(N(c4ccccc4)c4ccccc4)n3)n2)cc1`, the lowest concentration to inhibit growth in the assay on Candida albicans (MIC) was 0.63 µg/mL (≈ 1.01 µM).

Turning to `CC1=NN(c2ccccc2)C(C)C1Nc1nnc(Sc2nc(Nc3ccc(Cl)cc3)nc(Nc3ccc(Cl)cc3)n2)s1` (configuration not stated), the MIC with Pseudomonas aeruginosa [10] amounted to 6.25 µg/mL (≈ 9.83 µM).

As to `O=[N+]([O-])c1ccc(Nc2nc(Nc3ccc([N+](=O)[O-])cc3)nc(N3CCN(C(=S)Nc4ccnc5cc(Cl)ccc45)CC3)n2)cc1`, the zone of inhibition at 5 µg/disc lay in the range of 9 to 17 mm with Bacillus cereus, 9 to 17 mm in the assay with Pseudomonas aeruginosa [3], 16 to 17 mm with Staphylococcus aureus [4] and 16 to 17 mm in the assay with Bacillus subtilis [5].

Compound `CC1=NN(c2ccccc2)C(C)C1Nc1nnc(Sc2nc(Nc3ccc(Br)cc3)nc(Nc3ccc(Br)cc3)n2)s1` (configuration not stated) showed an MIC against Pseudomonas aeruginosa [10] of 6.25 µg/mL (≈ 8.63 µM).
